Source: PMC8539420, “Discovery of a Potent and Selective JNK3 Inhibitor with Neuroprotective Effect Against Amyloid β-Induced Neurotoxicity in Primary Rat Neurons” (International Journal of Molecular Sciences, 2021)

These molecules were tested against T1, JNK3(h) (Homo sapiens, UniProt P53779) (assay: Kinase HotSpot radiometric assay, JNK3). Details: ATP 10 μM, substrate ATF2 5 μM; read-out: JNK3 inhibitory activity IC50.
T1 construct: purchased Reaction Biology Corp
Assay type: biochemical

T1 sequence (P53779 whole entry): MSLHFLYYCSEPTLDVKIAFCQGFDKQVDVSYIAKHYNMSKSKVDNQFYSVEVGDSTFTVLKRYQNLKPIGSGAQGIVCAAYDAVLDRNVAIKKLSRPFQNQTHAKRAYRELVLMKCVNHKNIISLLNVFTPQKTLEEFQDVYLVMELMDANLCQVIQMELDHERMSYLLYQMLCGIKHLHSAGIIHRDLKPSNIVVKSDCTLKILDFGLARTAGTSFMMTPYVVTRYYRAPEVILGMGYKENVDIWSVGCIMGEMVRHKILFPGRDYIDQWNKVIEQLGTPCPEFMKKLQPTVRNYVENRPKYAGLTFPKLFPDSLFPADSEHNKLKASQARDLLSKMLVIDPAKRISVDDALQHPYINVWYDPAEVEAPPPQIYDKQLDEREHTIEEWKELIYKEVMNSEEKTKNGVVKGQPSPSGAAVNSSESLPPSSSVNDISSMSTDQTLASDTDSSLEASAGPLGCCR

**Q.** For `Oc1ccc2c(c1)nc(-c1ccc3ccccc3c1)n2-c1ccnc(NC2CCOCC2)n1` [9a], which IC50 is on record?
**A.** Its IC50 is 1480 nM.

**Q.** How did the IC50 turn out when `Oc1ccc2c(c1)nc(-c1ccc3c(c1)OCCO3)n2-c1ccnc(NC2CCOCC2)n1` [9b, 2-(2,3-Dihydrobenzo[b][1,4]dioxin-6-yl)-1-(2-((tetrahydro-2H-pyran-4-yl)amino)pyrimidin-4-yl)-1H-benzo[d]imidazol-5-ol] was run?
**A.** Its IC50 is > 10000 nM.

**Q.** How did the IC50 turn out when `Oc1ccc2c(c1)nc(-c1ccc3occc3c1)n2-c1ccnc(NC2CCOCC2)n1` [9c, 2-(Benzofuran-5-yl)-1-(2-((tetrahydro-2H-pyran-4-yl)amino)pyrimidin-4-yl)-1H-benzo[d] imidazol-5-ol] was run?
**A.** Its IC50 is 4310 nM.

**Q.** With `Oc1ccc2c(c1)nc(-c1ccc3ccccc3c1)n2-c1ccnc(NC2CCCCC2)n1` [10a, 1-(2-(cyclohexylamino)pyrimidin-4-yl)-2-(naphthalen-2-yl)-1H-benzo[d]imidazol-5-ol] as the molecule, how does the IC50 read?
**A.** The IC50 was 420 nM.

**Q.** `Oc1ccc2c(c1)nc(-c1ccc3c(c1)OCCO3)n2-c1ccnc(NC2CCCCC2)n1` [10b, 1-(2-(Cyclohexylamino)pyrimidin-4-yl)-2-(2,3-dihydrobenzo[b][1, 4]dioxin-6-yl)-1H-benzo [d]imidazol-5-ol] was tested. Which IC50 did it give?
**A.** The IC50 was 1210 nM.

**Q.** Which IC50 does the source give for `Oc1ccc2c(c1)nc(-c1ccc3occc3c1)n2-c1ccnc(NC2CCCCC2)n1` [10c, 2-(Benzofuran-5-yl)-1-(2-(cyclohexylamino)pyrimidin-4-yl)-1H-benzo[d]imidazol-5-ol] here?
**A.** Its IC50 is 299 nM.

**Q.** `Oc1ccc2c(c1)nc(-c1ccc(Cl)c(Cl)c1)n2-c1ccnc(NC2CCCCC2)n1` [10d, 1-(2-(Cyclohexylamino)pyrimidin-4-yl)-2-(3,4-dichlorophenyl)-1H-benzo[d]imidazol-5-ol] was tested. Which IC50 did it give?
**A.** The IC50 was 139 nM.

**Q.** Which IC50 does the source give for `Oc1ccc2c(c1)nc(-c1ccc(F)c(C(F)(F)F)c1)n2-c1ccnc(NC2CCCCC2)n1` [10e, 1-(2-(Cyclohexylamino)pyrimidin-4-yl)-2-(4-fluoro-3-(trifluoromethyl)phenyl)-1H-benzo [d]imidazol-5-ol] here?
**A.** The IC50 was 799 nM.

**Q.** Which IC50 does the source give for `Oc1ccc2c(c1)nc(-c1ccc3ccccc3n1)n2-c1ccnc(NC2CCCCC2)n1` [10f, 1-(2-(Cyclohexylamino)pyrimidin-4-yl)-2-(quinolin-2-yl)-1H-benzo[d]imidazol-5-ol] here?
**A.** Its IC50 is 424 nM.

**Q.** `O=C(C1CC1)N1CCC[C@H](Nc2nccc(-n3c(-c4ccc5ccccc5c4)nc4cc(O)ccc43)n2)C1` [13a, (S)-cyclopropyl(3-((4-(5-hydroxy-2-(naphthalen-2-yl)-1H-benzo[d]imidazol-1-yl)pyrimidin-2-yl)amino)piperidin-1-yl)methanone] was tested. Which IC50 did it give?
**A.** Its IC50 is 391 nM.

**Q.** For `O=C(C1CC1)N1CCC[C@H](Nc2nccc(-n3c(-c4ccc5c(c4)OCCO5)nc4cc(O)ccc43)n2)C1` [13b, (S)-Cyclopropyl(3-((4-(2-(2,3-dihydrobenzo[b][1, 4]dioxin-6-yl)-5-hydroxy-1H-benzo[d]imidazol-1-yl)pyrimidin-2-yl)amino)piperidin-1-yl)methanone], which IC50 is on record?
**A.** Its IC50 is 679 nM.

**Q.** With `O=C(C1CC1)N1CCC[C@H](Nc2nccc(-n3c(-c4ccc5occc5c4)nc4cc(O)ccc43)n2)C1` [13c, (S)-(3-((4-(2-(Benzofuran-5-yl)-5-hydroxy-1H-benzo[d]imidazol-1-yl)pyrimidin-2-yl)amino)piperidin-1-yl)(cyclopropyl)methanone] as the molecule, how does the IC50 read?
**A.** Its IC50 is 287 nM.

**Q.** How did the IC50 turn out when `O=C(C1CC1)N1CCC[C@H](Nc2nccc(-n3c(-c4ccc(Cl)c(Cl)c4)nc4cc(O)ccc43)n2)C1` [13d, (S)-Cyclopropyl(3-((4-(2-(3,4-dichlorophenyl)-5-hydroxy-1H-benzo[d]imidazol-1-yl)pyrimidin-2-yl)amino)piperidin-1-yl)methanone] was run?
**A.** Its IC50 is 128 nM.

**Q.** `O=C(C1CC1)N1CCC[C@H](Nc2nccc(-n3c(-c4ccc(F)c(C(F)(F)F)c4)nc4cc(O)ccc43)n2)C1` [13e, (S)-Cyclopropyl(3-((4-(2-(4-fluoro-3-(trifluoromethyl)phenyl)-5-hydroxy-1H-benzo[d]imidazol-1-yl)pyrimidin-2-yl)amino)piperidin-1-yl)methanone] was tested. Which IC50 did it give?
**A.** Its IC50 is 679 nM.

**Q.** How did the IC50 turn out when `O=C(C1CC1)N1CCC[C@H](Nc2nccc(-n3c(-c4ccc5ccccc5n4)nc4cc(O)ccc43)n2)C1` [13f, (S)-Cyclopropyl(3-((4-(5-hydroxy-2-(quinolin-2-yl)-1H-benzo[d]imidazol-1-yl)pyrimidin-2-yl)amino)piperidin-1-yl)methanone] was run?
**A.** Its IC50 is 161 nM.

**Q.** For `Oc1ccc2nc(-c3ccc4ccccc4c3)n(-c3ccnc(NC4CCOCC4)n3)c2c1` [22a, 2-(Naphthalen-2-yl)-1-(2-((tetrahydro-2H-pyran-4-yl)amino)pyrimidin-4-yl)-1H-benzo[d]imidazol-6-ol], which IC50 is on record?
**A.** The IC50 was 1430 nM.

**Q.** How did the IC50 turn out when `Oc1ccc2nc(-c3ccc4c(c3)OCCO4)n(-c3ccnc(NC4CCOCC4)n3)c2c1` [22b, 2-(2,3-Dihydrobenzo[b][1,4]dioxin-6-yl)-1-(2-((tetrahydro-2H-pyran-4-yl)amino)pyrimidin-4-yl)-1H-benzo[d]imidazol-6-ol] was run?
**A.** Its IC50 is 1550 nM.

**Q.** `Oc1ccc2nc(-c3ccc4occc4c3)n(-c3ccnc(NC4CCOCC4)n3)c2c1` [22c, 2-(Benzofuran-5-yl)-1-(2-((tetrahydro-2H-pyran-4-yl)amino)pyrimidin-4-yl)-1H-benzo[d]imidazol-6-ol] was tested. Which IC50 did it give?
**A.** Its IC50 is 2190 nM.

**Q.** Which IC50 does the source give for `Oc1ccc2nc(-c3ccc4ccccc4c3)n(-c3ccnc(NC4CCCCC4)n3)c2c1` [23a, 1-(2-(Cyclohexylamino)pyrimidin-4-yl)-2-(naphthalen-2-yl)-1H-benzo[d]imidazol-6-ol] here?
**A.** The IC50 was 45 nM.

**Q.** Which IC50 does the source give for `Oc1ccc2nc(-c3ccc4c(c3)OCCO4)n(-c3ccnc(NC4CCCCC4)n3)c2c1` [23b, 1-(2-(Cyclohexylamino)pyrimidin-4-yl)-2-(2,3-dihydrobenzo[b][1,4]dioxin-6-yl)-1H-benzo [d]imidazol-6-ol] here?
**A.** Its IC50 is 281 nM.

**Q.** With `Oc1ccc2nc(-c3ccc4occc4c3)n(-c3ccnc(NC4CCCCC4)n3)c2c1` [23c, 2-(Benzofuran-5-yl)-1-(2-(cyclohexylamino)pyrimidin-4-yl)-1H-benzo[d]imidazol-6-ol] as the molecule, how does the IC50 read?
**A.** Its IC50 is 71 nM.

**Q.** Which IC50 does the source give for `Oc1ccc2nc(-c3ccc(Cl)c(Cl)c3)n(-c3ccnc(NC4CCCCC4)n3)c2c1` [23d, 1-(2-(Cyclohexylamino)pyrimidin-4-yl)-2-(3,4-dichlorophenyl)-1H-benzo[d]imidazol-6-ol] here?
**A.** The IC50 was 110 nM.

**Q.** How did the IC50 turn out when `Oc1ccc2nc(-c3ccc(F)c(C(F)(F)F)c3)n(-c3ccnc(NC4CCCCC4)n3)c2c1` [23e, 1-(2-(Cyclohexylamino)pyrimidin-4-yl)-2-(4-fluoro-3-(trifluoromethyl)phenyl)-1H-benzo [d]imidazol-6-ol] was run?
**A.** The IC50 was 305 nM.

**Q.** With `Oc1ccc2nc(-c3ccc4ccccc4n3)n(-c3ccnc(NC4CCCCC4)n3)c2c1` [23f, 1-(2-(Cyclohexylamino)pyrimidin-4-yl)-2-(quinolin-2-yl)-1H-benzo[d]imidazol-6-ol] as the molecule, how does the IC50 read?
**A.** Its IC50 is 424 nM.

**Q.** How did the IC50 turn out when `O=C(C1CC1)N1CCC[C@H](Nc2nccc(-n3c(-c4ccc5c(c4)OCCO5)nc4ccc(O)cc43)n2)C1` [26b, (S)-Cyclopropyl(3-((4-(2-(2,3-dihydrobenzo[b][1,4]dioxin-6-yl)-6-hydroxy-1H-benzo[d]imidazol-1-yl)pyrimidin-2-yl)amino)piperidin-1-yl)methanone] was run?
**A.** The IC50 was 114 nM.

**Q.** How did the IC50 turn out when `O=C(C1CC1)N1CCC[C@H](Nc2nccc(-n3c(-c4ccc5occc5c4)nc4ccc(O)cc43)n2)C1` [26c, (S)-(3-((4-(2-(Benzofuran-5-yl)-6-hydroxy-1H-benzo[d]imidazol-1-yl)pyrimidin-2-yl)amino)piperidin-1-yl)(cyclopropyl)methanone] was run?
**A.** The IC50 was 42 nM.

**Q.** With `O=C(C1CC1)N1CCC[C@H](Nc2nccc(-n3c(-c4ccc(Cl)c(Cl)c4)nc4ccc(O)cc43)n2)C1` [26d, (S)-Cyclopropyl(3-((4-(2-(3,4-dichlorophenyl)-6-hydroxy-1H-benzo[d]imidazol-1-yl)pyrimidin-2-yl)amino)piperidin-1-yl)methanone] as the molecule, how does the IC50 read?
**A.** Its IC50 is 22 nM.

**Q.** How did the IC50 turn out when `O=C(C1CC1)N1CCC[C@H](Nc2nccc(-n3c(-c4ccc(F)c(C(F)(F)F)c4)nc4ccc(O)cc43)n2)C1` [26e, (S)-Cyclopropyl(3-((4-(2-(4-fluoro-3-(trifluoromethyl)phenyl)-6-hydroxy-1H-benzo[d]imidazol-1-yl)pyrimidin-2-yl)amino)piperidin-1-yl)methanone] was run?
**A.** Its IC50 is 100 nM.

**Q.** For `O=C(C1CC1)N1CCC[C@H](Nc2nccc(-n3c(-c4ccc5ccccc5n4)nc4ccc(O)cc43)n2)C1` [26f, (S)-Cyclopropyl(3-((4-(6-hydroxy-2-(quinolin-2-yl)-1H-benzo[d]imidazol-1-yl)pyrimidin-2-yl)amino)piperidin-1-yl)methanone], which IC50 is on record?
**A.** The IC50 was 189 nM.

Same assay, conditions: read-out: JNK3 IC50

**Q.** Which IC50 does the source give for `O=C(C1CC1)N1CCC[C@H](Nc2nccc(-n3c(-c4ccc(Cl)c(Cl)c4)nc4ccc(O)cc43)n2)C1` [26d, (S)-Cyclopropyl(3-((4-(2-(3,4-dichlorophenyl)-6-hydroxy-1H-benzo[d]imidazol-1-yl)pyrimidin-2-yl)amino)piperidin-1-yl)methanone] here?
**A.** The IC50 was ~20 nM.
